PubChem BioAssay AID1963450 (Molecular Pharmacology Branch, DTP, NCI, 2024)

Tested on: 556581-035-R-J1-PDC complex spheroid growth
Experiment: Anticancer human tumor 556581-035-R-J1-PDC patient-derived ovarian carcinoma cell line growth inhibition [Asc]
Conditions: for IC50: curve of first compound; for viability, T/C: stronger effect = lower value
Summary of the method: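 Complex solid-tumor spheroids incorporating human endothelial and mesenchymal stem cells received single agents or combinations over half-log dilution ranges anchored to clinical Cmax.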

[1] = second compound 0.01 µM, first compound 0.00316 µM
[2] = second compound 0.01 µM, first compound 0.01 µM
[3] = second compound 0.01 µM, first compound 0.0316 µM
[4] = second compound 0.01 µM, first compound 0.1 µM
[5] = second compound 0.01 µM, first compound 0.316 µM
[6] = second compound 0.01 µM, first compound 1 µM
[7] = second compound 0.0316 µM, first compound 0.00316 µM
[8] = second compound 0.0316 µM, first compound 0.01 µM
[9] = second compound 0.0316 µM, first compound 0.0316 µM
[10] = second compound 0.0316 µM, first compound 0.1 µM
[11] = second compound 0.0316 µM, first compound 0.316 µM
[12] = second compound 0.0316 µM, first compound 1 µM
[13] = second compound 0.1 µM, first compound 0.00316 µM
[14] = second compound 0.1 µM, first compound 0.01 µM
[15] = second compound 0.1 µM, first compound 0.0316 µM
[16] = second compound 0.1 µM, first compound 0.1 µM
[17] = second compound 0.1 µM, first compound 0.316 µM
[18] = second compound 0.1 µM, first compound 1 µM
[19] = second compound 0.316 µM, first compound 0.00316 µM
[20] = second compound 0.316 µM, first compound 0.01 µM
[21] = second compound 0.316 µM, first compound 0.0316 µM
[22] = second compound 0.316 µM, first compound 0.1 µM
[23] = second compound 0.316 µM, first compound 0.316 µM
[24] = second compound 0.316 µM, first compound 1 µM
[25] = second compound 1 µM, first compound 0.00316 µM
[26] = second compound 1 µM, first compound 0.01 µM
[27] = second compound 1 µM, first compound 0.0316 µM
[28] = second compound 1 µM, first compound 0.1 µM
[29] = second compound 1 µM, first compound 0.316 µM
[30] = second compound 1 µM, first compound 1 µM
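Further: spheroids exposed to agents for 7 days before viability read.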

Structure (SMILES) | IC50 (second compound 0.01 µM) [nM] | IC50 (second compound 0.0316 µM) [nM] | IC50 (second compound 0.1 µM) [nM] | IC50 (second compound 0.316 µM) [nM] | IC50 (second compound 1 µM) [nM] | viability, T/C [1] [%] | viability, T/C [2] [%] | viability, T/C [3] [%] | viability, T/C [4] [%] | viability, T/C [5] [%] | viability, T/C [6] [%] | viability, T/C [7] [%] | viability, T/C [9] [%] | viability, T/C [10] [%] | viability, T/C [15] [%] | viability, T/C [16] [%] | viability, T/C [21] [%] | viability, T/C [22] [%] | viability, T/C [27] [%] | viability, T/C [28] [%] | other results
CCN1CCN(Cc2ccc(Nc3ncc(F)c(-c4cc(F)c5nc(C)n(C(C)C)c5c4)n3)nc2)CC1 + CNC(C)C(=O)NC1CN(S(=O)(=O)c2cccc(S(=O)(=O)N3CCC4CCC(C(=O)NC(c5ccccc5)c5ccccc5)N4C(=O)C(NC(=O)C(C)NC)C3)c2)CCC2CCC(C(=O)NC(c3ccccc3)c3ccccc3)N2C1=O | > 1000 | > 1000 | 339 | 318 | 251 | 94.7 | 97.4 | 67.4 | 73.6 | 78.5 | 72.2 | 87.5 | 83 | 85.7 | 78.8 | 65.4 | 86.5 | 57.8 | 82.7 | 56.2 | viability, T/C [8]: 88.7%; viability, T/C [11]: 75.5%; viability, T/C [12]: 56.2%; viability, T/C [13]: 73.6%; viability, T/C [14]: 79.3%; viability, T/C [17]: 51.6%; viability, T/C [18]: 44%; viability, T/C [19]: 84.3%; viability, T/C [20]: 82.8%; viability, T/C [23]: 56%; viability, T/C [24]: 37.6%; viability, T/C [25]: 78.2%; viability, T/C [26]: 82.8%; viability, T/C [29]: 51.7%; viability, T/C [30]: 33%
Cn1ncnc1[C@H]1c2n[nH]c(=O)c3cc(F)cc(c23)N[C@@H]1c1ccc(F)cc1 + CNC(C)C(=O)NC1CN(S(=O)(=O)c2cccc(S(=O)(=O)N3CCC4CCC(C(=O)NC(c5ccccc5)c5ccccc5)N4C(=O)C(NC(=O)C(C)NC)C3)c2)CCC2CCC(C(=O)NC(c3ccccc3)c3ccccc3)N2C1=O | > 100 | > 100 | > 100 | > 100 | > 100 | 80.4 | 83.8 | 71.4 | 72.9 |  |  | 79.2 | 89.9 | 88.8 | 69.2 | 62.2 | 77.4 | 69.9 | 71.8 | 67 | viability, T/C (second compound 0.01 µM, first compound 0.000316 µM): 69.2%; viability, T/C (second compound 0.01 µM, first compound 0.001 µM): 69.1%; viability, T/C (second compound 0.0316 µM, first compound 0.000316 µM): 84.4%; viability, T/C (second compound 0.0316 µM, first compound 0.001 µM): 98.2%; viability, T/C [8]: 77%; viability, T/C (second compound 0.1 µM, first compound 0.000316 µM): 92.7%; viability, T/C (second compound 0.1 µM, first compound 0.001 µM): 73.7%; viability, T/C [13]: 65.5%; viability, T/C [14]: 69.2%; viability, T/C (second compound 0.316 µM, first compound 0.000316 µM): 76.3%; viability, T/C (second compound 0.316 µM, first compound 0.001 µM): 74%; viability, T/C [19]: 63.8%; viability, T/C [20]: 74%; viability, T/C (second compound 1 µM, first compound 0.000316 µM): 78.8%; viability, T/C (second compound 1 µM, first compound 0.001 µM): 77.6%; viability, T/C [25]: 71.1%; viability, T/C [26]: 69.5%
O=C(c1cc(Cc2n[nH]c(=O)c3ccccc23)ccc1F)N1CCN(C(=O)C2CC2)CC1 + CNC(C)C(=O)NC1CN(S(=O)(=O)c2cccc(S(=O)(=O)N3CCC4CCC(C(=O)NC(c5ccccc5)c5ccccc5)N4C(=O)C(NC(=O)C(C)NC)C3)c2)CCC2CCC(C(=O)NC(c3ccccc3)c3ccccc3)N2C1=O | > 10000 | > 10000 | > 10000 | > 10000 | 10000 |  |  | 83.4 | 74.5 | 88.2 | 93.8 |  | 89.3 | 88.7 | 84.4 | 67 | 88 | 76.3 | 76.8 | 84.1 | viability, T/C (second compound 0.01 µM, first compound 3.16 µM): 52.8%; viability, T/C (second compound 0.01 µM, first compound 10 µM): 56.8%; viability, T/C [11]: 87.3%; viability, T/C [12]: 88.8%; viability, T/C (second compound 0.0316 µM, first compound 3.16 µM): 55.3%; viability, T/C (second compound 0.0316 µM, first compound 10 µM): 73.1%; viability, T/C [17]: 67.2%; viability, T/C [18]: 61.5%; viability, T/C (second compound 0.1 µM, first compound 3.16 µM): 49.1%; viability, T/C (second compound 0.1 µM, first compound 10 µM): 61.2%; viability, T/C [23]: 86%; viability, T/C [24]: 76%; viability, T/C (second compound 0.316 µM, first compound 3.16 µM): 50%; viability, T/C (second compound 0.316 µM, first compound 10 µM): 63.2%; viability, T/C [29]: 73.8%; viability, T/C [30]: 88%; viability, T/C (second compound 1 µM, first compound 3.16 µM): 45.7%; viability, T/C (second compound 1 µM, first compound 10 µM): 61.2%
O=C(c1ccc(F)c(F)c1Nc1ccc(I)cc1F)N1CC(O)([C@@H]2CCCCN2)C1 + CNC(C)C(=O)NC1CN(S(=O)(=O)c2cccc(S(=O)(=O)N3CCC4CCC(C(=O)NC(c5ccccc5)c5ccccc5)N4C(=O)C(NC(=O)C(C)NC)C3)c2)CCC2CCC(C(=O)NC(c3ccccc3)c3ccccc3)N2C1=O | 219 | 187 | 92 | 183 | 119 | 68.6 | 71.7 | 87.2 | 83.6 | 37 | 10.6 | 86.4 | 84.2 | 71.9 | 59.7 | 50.8 | 91.7 | 66.3 | 74 | 53.6 | viability, T/C [8]: 72.7%; viability, T/C [11]: 31.2%; viability, T/C [12]: 13.3%; viability, T/C [13]: 68.3%; viability, T/C [14]: 64.5%; viability, T/C [17]: 27.1%; viability, T/C [18]: 12.7%; viability, T/C [19]: 73.9%; viability, T/C [20]: 68.8%; viability, T/C [23]: 33.7%; viability, T/C [24]: 15.2%; viability, T/C [25]: 70.9%; viability, T/C [26]: 81.4%; viability, T/C [29]: 24.6%; viability, T/C [30]: 11.2%
